Where “and” joins values, the source holds several entries; their conditions need not be identical. Identical values can stand only once.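 Tested at 5 concentrations; 48 h exposure; 96-well plates; endpoints linearly interpolated, else capped at highest concentration. The concentration for 50% growth inhibition is given as GI50. Definition used: TGI = concentration required for complete inhibition of growth.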
Experiments:
Assay in all cases: growth of human tumour cells (NCI), 48 h
UACC-62 melanoma = tested on: UACC-62 melanoma
PC-3 prostate = tested on: PC-3 prostate
HT29 colon = tested on: HT29 colon
ACHN renal = tested on: ACHN renal
786-0 renal = tested on: 786-0 renal
BT-549 breast = tested on: BT-549 breast
SF-295 CNS = tested on: SF-295 CNS
LOX IMVI melanoma = tested on: LOX IMVI melanoma
MALME-3M melanoma = tested on: MALME-3M melanoma
SK-MEL-2 melanoma = tested on: SK-MEL-2 melanoma

SMILES	GI50 (UACC-62 melanoma)	TGI (UACC-62 melanoma)	GI50 (PC-3 prostate) [µM]	TGI (PC-3 prostate)	GI50 (HT29 colon)	TGI (HT29 colon) [µM]	GI50 (ACHN renal)	TGI (ACHN renal)	GI50 (786-0 renal)	TGI (786-0 renal)	GI50 (BT-549 breast)	TGI (BT-549 breast)	GI50 (SF-295 CNS)	TGI (SF-295 CNS)	GI50 (LOX IMVI melanoma)	TGI (LOX IMVI melanoma)	GI50 (MALME-3M melanoma)	TGI (MALME-3M melanoma) [µM]	TGI (SK-MEL-2 melanoma) [µM]	GI50 (SK-MEL-2 melanoma) [µM]
COc1cc(/C=C/c2cc(/C=C/c3ccc(O)c(OC)c3)n(C(=O)Nc3ccc(C)cc3C)n2)ccc1O	0.412 µM	1.65 µM	0.379	5.01 µM	0.903 µM	3.59	0.412 µM	2.11 µM	0.549 µM	1.76 µM	0.693 µM	16.8 µM								
CCCCCCCCCCCCCCCCCCOc1ccccc1CC(=O)OCC[N+]1(C)CCCC1	1.63 µM	3.33 µM					4 µM	16.4 µM	1.71 µM	3.25 µM	2.59 µM	6.95 µM	2.83 µM	8.8 µM	1.8 µM	3.36 µM	2.08 µM	5.22		
CN(CCC#N)c1ccc(/C=C(\C#N)c2ccc(Br)cc2)cc1			> 100	> 100 µM	3.16 µM	> 100	> 100 µM	> 100 µM	> 100 µM	> 100 µM	> 100 µM	> 100 µM					> 100 µM	> 100		
OCc1ccc(C2CC(c3ccco3)=NN2c2ccccc2)o1 (stereo not drawn)		> 100 µM				> 100		> 100 µM		> 100 µM				> 100 µM		> 100 µM		> 100	> 100	
S=C1OC2CCCC[C@H]2O1 (stereo partly drawn)		> 100 µM				> 100		> 100 µM		> 100 µM				> 100 µM		> 100 µM			> 100	
O=C1CCCC[C@H]1[C@H]1CCC[C@@H]([C@H]2CCCCC2=O)C1=O		> 100 µM				> 100		> 100 µM		> 100 µM				> 100 µM		> 100 µM		> 100	> 100	
O=C(NCO)NCOCn1c(=O)n(CO)c(=O)n(CO)c1=O		36.8 µM				99.7		> 100 µM		> 100 µM				> 100 µM		37.3 µM		> 74	33.8	
COc1ccc2cc(C(C)C(=O)N3CCOC3=O)ccc2c1 (stereo not drawn)		> 100 µM		> 100 µM		> 100		> 100 µM		> 100 µM		> 100 µM		> 100 µM		> 100 µM		> 100		
Cc1ccc(S(=O)(=O)C(C#N)c2nc3ccccc3nc2-n2ccnc2)cc1 (stereo not drawn)						> 100		> 100 µM		> 100 µM				> 100 µM				> 100	> 100	
COc1ccc(OC)c2c(C(=O)O)c(Cc3ccccc3)ccc12		> 100 µM				> 100		> 100 µM		> 100 µM				> 100 µM		> 100 µM		> 100	> 100	
O=C1CC2CCCC23CC2(CCN13)OCCO2 (stereo not drawn)		> 100 µM				> 100		> 100 µM		> 100 µM				> 100 µM		> 100 µM		> 100	> 100	
Clc1ccc2c(c1)-c1c3c(nn1-c1ccccc1)-c1ccccc1SC3O2 (stereo not drawn)						> 100		> 100 µM		> 100 µM				> 100 µM		> 100 µM		> 100	> 100	
C[C@]12CC[C@@H]3c4cc(OCC(F)(F)F)c(O)cc4/C(=N/O)C[C@H]3[C@@H]1CC[C@@H]2O	0.0243 µM	17.7 µM		12 µM		13.2	0.065 µM	> 64 µM	0.029 µM				0.0611 µM	1.95 µM	0.048 µM	14.8 µM		29.6	0.852	
COc1c(C(C)C)cc2c3c1OC(=O)[C@@]31CCCC(C)(C)C1CC2 (stereo partly drawn)		> 100 µM				> 100		> 100 µM		> 100 µM				78.7 µM		> 100 µM		98.5	84	
CC(=O)O[C@]12CCCCCC1C1(O)C(O)CCCC[C@H]12 (stereo partly drawn)		> 100 µM				> 100		> 100 µM		> 100 µM				> 100 µM		> 100 µM		> 100	> 100	
c1ccc(C2Nc3ccccc3C3OCCCC23)cc1 (stereo not drawn)		58.5 µM						> 100 µM		> 100 µM				37.4 µM		35.3 µM		> 100	82.2	
CCc1nc(C(N)=O)c(Nc2ccc(N3CCC(N4CCN(C)CC4)CC3)c(OC)c2)nc1NC1CCOCC1	1.53 µM and 0.527 µM and 1.56 µM	16.9 µM and > 10 µM and 16.4 µM		25.7 µM and > 10 µM and 26 µM	0.569 µM and 0.251 µM and 0.467 µM	> 43.8	2.07 µM and 0.42 µM and 1.48 µM	17.1 µM and > 10 µM and 15.4 µM	2.48 µM and 0.461 µM and 2.38 µM	13.8 µM and > 10 µM and 14.1 µM	2.61 µM and 0.521 µM and 3.56 µM	14.7 µM and > 2.84 µM and 17.3 µM	3.59 µM and 1.02 µM and 4.54 µM	15.3 µM and > 3.5 µM and 17.3 µM	2.12 µM and 0.337 µM and 2.82 µM	17.6 µM and > 2.34 µM and 19.4 µM	0.946 µM and 0.239 µM and 0.764 µM			
O=C(O)[C@H](NS(=O)(=O)c1ccc([N+](=O)[O-])cc1)c1ccccc1		> 100 µM				> 100		> 100 µM		> 100 µM				> 100 µM		> 100 µM		> 100	> 100	
CCCSc1nc(COC(=O)NC)c(COC(=O)NC)n1C		> 100 µM				> 100		72.3 µM		> 100 µM				> 100 µM		> 100 µM		> 100	> 100	
CCOC(=O)c1ccc(C)c(N=NN(C)C)c1		> 100 µM				> 100		> 100 µM		> 100 µM				> 100 µM		> 100 µM		> 100	> 100	
O=C1CCC(O)=C1N=Nc1ccccc1		74.1 µM				> 100		> 100 µM		> 100 µM				> 100 µM		> 100 µM		> 100	> 100	
CC(C)(C)c1cc(C(O)(C(F)(F)F)C(F)(F)F)c2c(c1)C(C(F)(F)F)(C(F)(F)F)OC(C(C)(C)C)N2 (stereo not drawn)		14.4 µM				9.37		10.2 µM		11.9 µM				8.04 µM					10.3	
COc1cc2[nH]c(C(=O)c3cc(OC)c(OC)c(OC)c3)c(N)c2cc1C#CC1CC1	20.1 µM	> 100 µM	2.21	> 100 µM	3.38 µM	28	1.3 µM	> 100 µM	3.25 µM	> 100 µM			1.66 µM	> 100 µM	4.33 µM	> 100 µM			> 100	5.14

From PubChem BioAssay (NCI)
